Publication PMC12424613, “Analysis of the resistance level and target site resistance mechanisms of Echinochloa crus-galli to penoxsulam from Hubei Province, China” (PeerJ, 2025)
pIC50: −log10 of the molar value.

Molecular target: T1, acetolactate synthase (ALS)
T1 construct: native ALS from leaf extract of susceptible population 18-NJ (ammonium sulfate precipitated, desalted; ALS1/ALS2/ALS3 copies not separated)
Experiment: in vitro ALS activity assay (acetoin formation, […] nm) in desalted leaf enzyme extract
Format: biochemical, Echinochloa crus-galli

COc1cnc(OC)n2nc(NS(=O)(=O)c3c(OCC(F)F)cccc3C(F)(F)F)nc12 [penoxsulam]
pIC50: 5.91
